# Test results from ChEMBL document CHEMBL1201862, “PubChem BioAssay data set” (2004).
#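 Values below derive from 48-hour exposures of cells grown in 96-well plates, with endpoints linearly interpolated between the two concentrations bracketing the appropriate inhibition level. GI50 = concentration required for 50% inhibition of growth.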 Calls of active or inactive are those of the source. No stated cut-off is given here; in the data, active = GI50 up to about 1.1 µM and inactive = higher.
# Legend:
# Assay in all cases: inhibition of tumour cell growth, NCI panel, 48 h
# 786-0 = system: 786-0
# A498 = system: A498
# A549 = system: A549
# ACHN = system: ACHN
# CAKI-1 = system: CAKI-1
# CCRF-CEM = system: CCRF-CEM
# COLO 205 = system: COLO 205
# DLD-1 = system: DLD-1
# DMS-114 = system: DMS-114
# DMS-273 = system: DMS-273
# EKVX = system: EKVX
# HCT-116 = system: HCT-116
# HCT-15 = system: HCT-15
# HL-60 = system: HL-60
# HOP-18 = system: HOP-18
# HOP-62 = system: HOP-62
# HOP-92 = system: HOP-92
# HT-29 = system: HT-29
# IGROV-1 = system: IGROV-1
# K562 = system: K562
# KM-20L2 = system: KM-20L2
# KM12 = system: KM12
# LOX IMVI = system: LOX IMVI
# LXFL 529 = system: LXFL 529
# M14 = system: M14
# M19-MEL = system: M19-MEL
# MOLT-4 = system: MOLT-4
# Malme-3M = system: Malme-3M
# NCI-H226 = system: NCI-H226
# NCI-H23 = system: NCI-H23
# NCI-H460 = system: NCI-H460
# NCI-H522 = system: NCI-H522
# OVCAR-3 = system: OVCAR-3
# OVCAR-4 = system: OVCAR-4
# OVCAR-5 = system: OVCAR-5
# OVCAR-8 = system: OVCAR-8
# RPMI-8226 = system: RPMI-8226
# RXF 393 = system: RXF 393
# RXF 631 = system: RXF 631
# SF-268 = system: SF-268
# SF-295 = system: SF-295
# SF-539 = system: SF-539
# SK-MEL-28 = system: SK-MEL-28
# SK-MEL-2 = system: SK-MEL-2
# SK-MEL-5 = system: SK-MEL-5
# SK-OV-3 = system: SK-OV-3
# SN12C = system: SN12C
# SNB-19 = system: SNB-19
# SNB-75 = system: SNB-75
# SNB-78 = system: SNB-78
# SR = system: SR
# SW-620 = system: SW-620
# TK-10 = system: TK-10
# U-251 = system: U-251
# UACC-257 = system: UACC-257
# UACC-62 = system: UACC-62
# UO-31 = system: UO-31
# XF498 = system: XF498
compound,measurement,setting,value
CN1CCCS/C1=C1/SC(=S)N(c2ccccc2)C1=O,GI50,786-0,> 100 µM (inactive)
same,GI50,A498,> 100 µM (inactive)
same,GI50,A549,> 100 µM (inactive)
same,GI50,ACHN,> 100 µM (inactive)
same,GI50,CAKI-1,> 100 µM (inactive)
same,GI50,CCRF-CEM,> 100 µM (inactive)
same,GI50,COLO 205,> 100 µM (inactive)
same,GI50,DLD-1,> 100 µM (inactive)
same,GI50,DMS-114,> 100 µM (inactive)
same,GI50,DMS-273,> 100 µM (inactive)
same,GI50,EKVX,> 100 µM (inactive)
same,GI50,HCT-116,> 100 µM (inactive)
same,GI50,HCT-15,> 100 µM
same,GI50,HL-60,> 100 µM (inactive)
same,GI50,HOP-18,> 100 µM (inactive)
same,GI50,HOP-62,> 100 µM (inactive)
same,GI50,HOP-92,> 100 µM (inactive)
same,GI50,HT-29,> 100 µM (inactive)
same,GI50,IGROV-1,> 100 µM (inactive)
same,GI50,K562,> 100 µM (inactive)
same,GI50,KM-20L2,> 100 µM (inactive)
same,GI50,KM12,> 100 µM (inactive)
same,GI50,LOX IMVI,> 100 µM (inactive)
same,GI50,LXFL 529,> 100 µM (inactive)
same,GI50,M14,> 100 µM (inactive)
same,GI50,M19-MEL,> 100 µM (inactive)
same,GI50,MOLT-4,> 100 µM (inactive)
same,GI50,Malme-3M,> 100 µM (inactive)
same,GI50,NCI-H226,> 100 µM (inactive)
same,GI50,NCI-H23,> 100 µM (inactive)
same,GI50,NCI-H460,> 100 µM (inactive)
same,GI50,NCI-H522,> 100 µM (inactive)
same,GI50,OVCAR-3,> 100 µM (inactive)
same,GI50,OVCAR-4,> 100 µM (inactive)
same,GI50,OVCAR-5,> 100 µM (inactive)
same,GI50,OVCAR-8,> 100 µM (inactive)
same,GI50,RPMI-8226,> 100 µM (inactive)
same,GI50,RXF 393,> 100 µM (inactive)
same,GI50,RXF 631,> 100 µM (inactive)
same,GI50,SF-268,> 100 µM (inactive)
same,GI50,SF-295,> 100 µM (inactive)
same,GI50,SF-539,> 100 µM (inactive)
same,GI50,SK-MEL-28,> 100 µM (inactive)
same,GI50,SK-MEL-2,> 100 µM (inactive)
same,GI50,SK-MEL-5,> 100 µM (inactive)
same,GI50,SK-OV-3,> 100 µM (inactive)
same,GI50,SN12C,> 100 µM (inactive)
same,GI50,SNB-19,> 100 µM (inactive)
same,GI50,SNB-75,> 100 µM (inactive)
same,GI50,SNB-78,> 100 µM (inactive)
same,GI50,SR,> 100 µM (inactive)
same,GI50,SW-620,> 100 µM (inactive)
same,GI50,TK-10,> 100 µM (inactive)
same,GI50,U-251,> 100 µM (inactive)
same,GI50,UACC-257,> 100 µM (inactive)
same,GI50,UACC-62,> 100 µM (inactive)
same,GI50,UO-31,> 100 µM (inactive)
same,GI50,XF498,> 100 µM (inactive)
